{"source": "ChEMBL document CHEMBL4177727", "about": "“Synthesis and biological evaluation of 1-amino isochromans from 2-bromoethyl benzaldehyde and amines in acid medium” (2018)", "assay_type_in_all_cases": "functional", "details_in_all_cases": "read-out: IZ", "key": {"[1]": {"system": "Staphylococcus aureus", "assay": "Antibacterial activity against Staphylococcus aureus MTCC 96 at 1 ug/ml under overnight incubation condition by paper disc method"}, "[2]": {"system": "Pseudomonas aeruginosa", "assay": "Antibacterial activity against Pseudomonas aeruginosa MTCC 424 at 1 ug/ml under overnight incubation condition by paper disc method"}, "[3]": {"system": "Escherichia coli", "assay": "Antibacterial activity against Escherichia coli MTCC 443 at 1 ug/ml under overnight incubation condition by paper disc method"}, "[4]": {"system": "Bacillus subtilis", "assay": "Antibacterial activity against Bacillus subtilis MTCC 441 at 1 ug/ml under overnight incubation condition by paper disc method"}}}
{"smiles": "Cc1cc(Br)cnc1NCCc1ccccc1C=O", "values": [{"measurement": "zone of inhibition at 1 µg/mL", "setting": "[1]", "result": 4, "unit": "mm"}, {"measurement": "zone of inhibition at 1 µg/mL", "setting": "[2]", "result": 5, "unit": "mm"}, {"measurement": "zone of inhibition at 1 µg/mL", "setting": "[3]", "result": 3.5, "unit": "mm"}, {"measurement": "zone of inhibition at 1 µg/mL", "setting": "[4]", "result": 3, "unit": "mm"}]}
{"smiles": "c1ccc2c(c1)CCOC2Nc1nc2ccccc2s1", "note": "(stereo not given)", "values": [{"measurement": "zone of inhibition at 1 µg/mL", "setting": "[1]", "result": 3, "unit": "mm"}, {"measurement": "zone of inhibition at 1 µg/mL", "setting": "[2]", "result": 3, "unit": "mm"}, {"measurement": "zone of inhibition at 1 µg/mL", "setting": "[3]", "result": 2.5, "unit": "mm"}, {"measurement": "zone of inhibition at 1 µg/mL", "setting": "[4]", "result": 2.5, "unit": "mm"}]}
{"smiles": "Ic1ccc(NC2OCCc3ccccc32)nc1", "note": "(stereo not given)", "values": [{"measurement": "zone of inhibition at 1 µg/mL", "setting": "[1]", "result": 3, "unit": "mm"}, {"measurement": "zone of inhibition at 1 µg/mL", "setting": "[2]", "result": 4.5, "unit": "mm"}, {"measurement": "zone of inhibition at 1 µg/mL", "setting": "[3]", "result": 3.5, "unit": "mm"}, {"measurement": "zone of inhibition at 1 µg/mL", "setting": "[4]", "result": 6, "unit": "mm"}]}
{"smiles": "Fc1ccc2nc(NC3OCCc4ccccc43)sc2c1", "note": "(stereo not given)", "values": [{"measurement": "zone of inhibition at 1 µg/mL", "setting": "[1]", "result": 2.5, "unit": "mm"}, {"measurement": "zone of inhibition at 1 µg/mL", "setting": "[2]", "result": 3, "unit": "mm"}, {"measurement": "zone of inhibition at 1 µg/mL", "setting": "[3]", "result": 4, "unit": "mm"}, {"measurement": "zone of inhibition at 1 µg/mL", "setting": "[4]", "result": 4.5, "unit": "mm"}]}
{"smiles": "FC(F)(F)c1ccc2nc(NC3OCCc4ccccc43)sc2c1", "note": "(stereo not given)", "values": [{"measurement": "zone of inhibition at 1 µg/mL", "setting": "[1]", "result": 2.5, "unit": "mm"}, {"measurement": "zone of inhibition at 1 µg/mL", "setting": "[2]", "result": 2.5, "unit": "mm"}, {"measurement": "zone of inhibition at 1 µg/mL", "setting": "[3]", "result": 2.5, "unit": "mm"}, {"measurement": "zone of inhibition at 1 µg/mL", "setting": "[4]", "result": 2.5, "unit": "mm"}]}
{"smiles": "O=[N+]([O-])c1ccc(NC2OCCc3ccccc32)cc1", "note": "(stereo not given)", "values": [{"measurement": "zone of inhibition at 1 µg/mL", "setting": "[1]", "result": 3, "unit": "mm"}, {"measurement": "zone of inhibition at 1 µg/mL", "setting": "[2]", "result": 4, "unit": "mm"}, {"measurement": "zone of inhibition at 1 µg/mL", "setting": "[3]", "result": 4.5, "unit": "mm"}, {"measurement": "zone of inhibition at 1 µg/mL", "setting": "[4]", "result": 5, "unit": "mm"}]}
{"smiles": "Brc1ccc2nc(NC3OCCc4ccccc43)sc2c1", "note": "(stereo not given)", "values": [{"measurement": "zone of inhibition at 1 µg/mL", "setting": "[1]", "result": 5, "unit": "mm"}, {"measurement": "zone of inhibition at 1 µg/mL", "setting": "[2]", "result": 5, "unit": "mm"}, {"measurement": "zone of inhibition at 1 µg/mL", "setting": "[3]", "result": 2.5, "unit": "mm"}, {"measurement": "zone of inhibition at 1 µg/mL", "setting": "[4]", "result": 2.5, "unit": "mm"}]}
{"smiles": "CCOc1ccc2nc(NC3OCCc4ccccc43)sc2c1", "note": "(stereo not given)", "values": [{"measurement": "zone of inhibition at 1 µg/mL", "setting": "[1]", "result": 6, "unit": "mm"}, {"measurement": "zone of inhibition at 1 µg/mL", "setting": "[2]", "result": 5, "unit": "mm"}, {"measurement": "zone of inhibition at 1 µg/mL", "setting": "[3]", "result": 6.5, "unit": "mm"}, {"measurement": "zone of inhibition at 1 µg/mL", "setting": "[4]", "result": 7.5, "unit": "mm"}]}
{"smiles": "Fc1nc(NC2OCCc3ccccc32)sc1F", "note": "(stereo not given)", "values": [{"measurement": "zone of inhibition at 1 µg/mL", "setting": "[1]", "result": 3, "unit": "mm"}, {"measurement": "zone of inhibition at 1 µg/mL", "setting": "[2]", "result": 4, "unit": "mm"}, {"measurement": "zone of inhibition at 1 µg/mL", "setting": "[3]", "result": 3, "unit": "mm"}, {"measurement": "zone of inhibition at 1 µg/mL", "setting": "[4]", "result": 3, "unit": "mm"}]}
{"smiles": "Fc1ccc(-c2cnc(NC3OCCc4ccccc43)s2)cc1", "note": "(stereo not given)", "values": [{"measurement": "zone of inhibition at 1 µg/mL", "setting": "[1]", "result": 3, "unit": "mm"}, {"measurement": "zone of inhibition at 1 µg/mL", "setting": "[2]", "result": 5, "unit": "mm"}, {"measurement": "zone of inhibition at 1 µg/mL", "setting": "[3]", "result": 6, "unit": "mm"}, {"measurement": "zone of inhibition at 1 µg/mL", "setting": "[4]", "result": 2.5, "unit": "mm"}]}
{"smiles": "Cc1cccc(NC2OCCc3ccccc32)n1", "note": "(stereo not given)", "values": [{"measurement": "zone of inhibition at 1 µg/mL", "setting": "[1]", "result": 4.5, "unit": "mm"}, {"measurement": "zone of inhibition at 1 µg/mL", "setting": "[2]", "result": 6, "unit": "mm"}, {"measurement": "zone of inhibition at 1 µg/mL", "setting": "[3]", "result": 3, "unit": "mm"}, {"measurement": "zone of inhibition at 1 µg/mL", "setting": "[4]", "result": 4, "unit": "mm"}]}
{"smiles": "Cc1nc(NC2OCCc3ccccc32)sc1-c1ccccc1", "note": "(stereo not given)", "values": [{"measurement": "zone of inhibition at 1 µg/mL", "setting": "[1]", "result": 2.5, "unit": "mm"}, {"measurement": "zone of inhibition at 1 µg/mL", "setting": "[2]", "result": 3, "unit": "mm"}, {"measurement": "zone of inhibition at 1 µg/mL", "setting": "[3]", "result": 2.5, "unit": "mm"}, {"measurement": "zone of inhibition at 1 µg/mL", "setting": "[4]", "result": 2.5, "unit": "mm"}]}
{"smiles": "COc1cccc2sc(NC3OCCc4ccccc43)nc12", "note": "(stereo not given)", "values": [{"measurement": "zone of inhibition at 1 µg/mL", "setting": "[1]", "result": 2.5, "unit": "mm"}, {"measurement": "zone of inhibition at 1 µg/mL", "setting": "[2]", "result": 4, "unit": "mm"}, {"measurement": "zone of inhibition at 1 µg/mL", "setting": "[3]", "result": 3, "unit": "mm"}, {"measurement": "zone of inhibition at 1 µg/mL", "setting": "[4]", "result": 3, "unit": "mm"}]}
{"smiles": "Cc1ccc2nc(NC3OCCc4ccccc43)sc2c1", "note": "(stereo not given)", "values": [{"measurement": "zone of inhibition at 1 µg/mL", "setting": "[1]", "result": 2.5, "unit": "mm"}, {"measurement": "zone of inhibition at 1 µg/mL", "setting": "[2]", "result": 2.5, "unit": "mm"}, {"measurement": "zone of inhibition at 1 µg/mL", "setting": "[3]", "result": 2.5, "unit": "mm"}, {"measurement": "zone of inhibition at 1 µg/mL", "setting": "[4]", "result": 2.5, "unit": "mm"}]}
{"smiles": "CCn1cc(C(=O)O)c(=O)c2cc(F)c(N3CCNCC3)cc21", "note": "[NORFLOXACIN]", "values": [{"measurement": "zone of inhibition at 1 µg/mL", "setting": "[1]", "result": 7, "unit": "mm"}, {"measurement": "zone of inhibition at 1 µg/mL", "setting": "[2]", "result": 9.5, "unit": "mm"}]}
{"smiles": "CC1COc2c(N3CCN(C)CC3)c(F)cc3c(=O)c(C(=O)O)cn1c23", "note": "(stereo not given) [OFLOXACIN]", "values": [{"measurement": "zone of inhibition at 1 µg/mL", "setting": "[3]", "result": 11, "unit": "mm"}, {"measurement": "zone of inhibition at 1 µg/mL", "setting": "[4]", "result": 10, "unit": "mm"}]}
